Source: ChEMBL document CHEMBL1817541, “Synthesis and Evaluation of the α-D-/α-L-Rhamnosyl and Amicetosyl Digitoxigenin Oligomers as Anti-tumor Agents” (ACS Med Chem Lett, 2011)

Experiments:
Type in all cases: functional
NCI-H460 [1] = assay: Cytotoxicity against human NCI-H460 cell assessed as cell death at 10 nM after 12 hrs by Hoechst 33342/propidium iodide staining based fluorescence microscopy
NCI-H460 [2] = assay: Cytotoxicity against human NCI-H460 cell assessed as cell death at 50 nM after 12 hrs by Hoechst 33342/propidium iodide staining based fluorescence microscopy
NCI-H460 [3] = assay: Cytotoxicity against human NCI-H460 cell assessed as cell death at 100 nM after 12 hrs by Hoechst 33342/propidium iodide staining based fluorescence microscopy
NCI-H460 [4] = assay: Cytotoxicity against human NCI-H460 cell assessed as cell death at 500 nM after 12 hrs by Hoechst 33342/propidium iodide staining based fluorescence microscopy
NCI-H460 [5] = assay: Cytotoxicity against human NCI-H460 cell assessed as cell death at 1 uM after 12 hrs by Hoechst 33342/propidium iodide staining based fluorescence microscopy
NCI-H460 [6] = assay: Cytotoxicity against human NCI-H460 cells in serum free medium assessed as cell death at 10 uM after 12 hrs by Hoechst 33342/propidium iodide staining based fluorescence microscopy
NCI-H460 [7] = assay: Cytotoxicity against human NCI-H460 cell assessed as cell death at 100 uM after 12 hrs by Hoechst 33342/propidium iodide staining based fluorescence microscopy
NCI-H460 [8] = assay: Cytotoxicity against human NCI-H460 cell assessed as cell death after 12 hrs by Hoechst 33342/propidium iodide staining based fluorescence microscopy; conditions: NCI-H460, 12 h
NCI-H460 [9] = assay: Induction of apoptosis in human NCI-H460 cells in at 50 nM after 12 hrs by Hoechst 33342/propidium iodide staining based fluorescence microscopy

With `C[C@@H]1O[C@@H](O[C@@H]2CC[C@H](O[C@@H]3CC[C@H](O[C@H]4CC[C@@]5(C)[C@H](CC[C@@H]6[C@@H]5CC[C@]5(C)[C@@H](C7=CC(=O)OC7)CC[C@]65O)C4)O[C@H]3C)O[C@H]2C)CC[C@H]1O` as the molecule, how does the Activity (NCI-H460 [1]) read?
The Activity was 8.34%.

What about the Activity (NCI-H460 [2]) of the same molecule?
The Activity was 10.85%.

And the Activity (NCI-H460 [3])?
Its Activity is 11.8%.

And the Activity (NCI-H460 [4])?
Its Activity is 16.46%.

What about the Activity (NCI-H460 [5]) of the same molecule?
The Activity was 25.85%.

What about the Activity (NCI-H460 [6]) of the same molecule?
The Activity was 70.17%.

And the Activity (NCI-H460 [7])?
The Activity was 91.74%.

What about the IC50 (NCI-H460 [8]) of the same molecule?
Its IC50 is 3.96 µM.

What does the source list for `C[C@@H]1O[C@@H](O[C@H]2CC[C@@]3(C)[C@H](CC[C@@H]4[C@@H]3CC[C@]3(C)[C@@H](C5=CC(=O)OC5)CC[C@]43O)C2)[C@H](O)[C@H](O)[C@H]1O`?
Activity (NCI-H460 [1]): 17.04%; Activity (NCI-H460 [2]): 60.56%; Activity (NCI-H460 [3]): 96.96%; Activity (NCI-H460 [4]): 100%; Activity (NCI-H460 [5]): 100%; Activity (NCI-H460 [6]): 100%; Activity (NCI-H460 [7]): 100%; Activity (NCI-H460 [9]): 48.64%

Which Activity (NCI-H460 [1]) does the source give for `C[C@H]1O[C@H](O[C@H]2CC[C@@]3(C)[C@H](CC[C@@H]4[C@@H]3CC[C@]3(C)[C@@H](C5=CC(=O)OC5)CC[C@]43O)C2)CC[C@@H]1O[C@@H]1CC[C@H](O)[C@@H](C)O1` here?
The Activity was 9.06%.

And the Activity (NCI-H460 [2])?
The Activity was 10.01%.

And the Activity (NCI-H460 [3])?
Its Activity is 11.49%.

And the Activity (NCI-H460 [4])?
Its Activity is 12.91%.

What about the Activity (NCI-H460 [5]) of the same molecule?
The Activity was 15.99%.

And the Activity (NCI-H460 [6])?
Its Activity is 50.25%.

And the Activity (NCI-H460 [7])?
The Activity was 71.1%.

And the IC50 (NCI-H460 [8])?
The IC50 was 5.99 µM.

How did the Activity (NCI-H460 [1]) turn out when `C[C@@H]1O[C@@H](O[C@@H]2[C@@H](O)[C@@H](O)[C@H](O[C@@H]3[C@@H](O)[C@@H](O)[C@H](O[C@H]4CC[C@@]5(C)[C@H](CC[C@@H]6[C@@H]5CC[C@]5(C)[C@@H](C7=CC(=O)OC7)CC[C@]65O)C4)O[C@H]3C)O[C@H]2C)[C@H](O)[C@H](O)[C@H]1O` was run?
Its Activity is 10.71%.

And the Activity (NCI-H460 [2])?
Its Activity is 12.17%.

What about the Activity (NCI-H460 [3]) of the same molecule?
The Activity was 15.21%.

What about the Activity (NCI-H460 [4]) of the same molecule?
Its Activity is 38.97%.

And the Activity (NCI-H460 [5])?
The Activity was 43.65%.

And the Activity (NCI-H460 [6])?
The Activity was 94.07%.

And the Activity (NCI-H460 [7])?
The Activity was 100%.

And the IC50 (NCI-H460 [8])?
The IC50 was 1.35 µM.

What does the source list for `C[C@H]1O[C@H](O[C@H]2CC[C@@]3(C)[C@H](CC[C@@H]4[C@@H]3CC[C@]3(C)[C@@H](C5=CC(=O)OC5)CC[C@]43O)C2)[C@@H](O)[C@@H](O)[C@@H]1O`?
Activity (NCI-H460 [1]): 7.85%; Activity (NCI-H460 [2]): 12.14%; Activity (NCI-H460 [3]): 12.28%; Activity (NCI-H460 [4]): 35.05%; Activity (NCI-H460 [5]): 71.67%; Activity (NCI-H460 [6]): 95.72%; Activity (NCI-H460 [7]): 100%; IC50 (NCI-H460 [8]): 0.706 µM; Activity (NCI-H460 [9]): 45.71%

Which Activity (NCI-H460 [1]) does the source give for `C[C@@H]1O[C@@H](O[C@@H]2[C@@H](O)[C@@H](O)[C@H](O[C@H]3CC[C@@]4(C)[C@H](CC[C@@H]5[C@@H]4CC[C@]4(C)[C@@H](C6=CC(=O)OC6)CC[C@]54O)C3)O[C@H]2C)[C@H](O)[C@H](O)[C@H]1O` here?
The Activity was 12.68%.

And the Activity (NCI-H460 [2])?
Its Activity is 16.8%.

And the Activity (NCI-H460 [3])?
The Activity was 20.51%.

What about the Activity (NCI-H460 [4]) of the same molecule?
The Activity was 62.95%.

And the Activity (NCI-H460 [5])?
Its Activity is 92.06%.

And the Activity (NCI-H460 [6])?
Its Activity is 100%.

And the Activity (NCI-H460 [7])?
The Activity was 100%.

What about the IC50 (NCI-H460 [8]) of the same molecule?
The IC50 was 0.365 µM.

Which Activity (NCI-H460 [1]) does the source give for `C[C@@H]1O[C@@H](O[C@@H]2CC[C@H](O[C@H]3CC[C@@]4(C)[C@H](CC[C@@H]5[C@@H]4CC[C@]4(C)[C@@H](C6=CC(=O)OC6)CC[C@]54O)C3)O[C@H]2C)CC[C@H]1O` here?
Its Activity is 8.73%.

And the Activity (NCI-H460 [2])?
Its Activity is 14.89%.

What about the Activity (NCI-H460 [3]) of the same molecule?
The Activity was 18.03%.

What about the Activity (NCI-H460 [4]) of the same molecule?
The Activity was 53.76%.

What about the Activity (NCI-H460 [5]) of the same molecule?
Its Activity is 94.59%.

And the Activity (NCI-H460 [6])?
Its Activity is 100%.

And the Activity (NCI-H460 [7])?
The Activity was 100%.

And the IC50 (NCI-H460 [8])?
The IC50 was 0.51 µM.

`C[C@H]1O[C@H](O[C@H]2CC[C@@]3(C)[C@H](CC[C@@H]4[C@@H]3CC[C@]3(C)[C@@H](C5=CC(=O)OC5)CC[C@]43O)C2)CC[C@@H]1O[C@@H]1CC[C@H](O[C@@H]2CC[C@H](O)[C@@H](C)O2)[C@@H](C)O1` was tested. Which Activity (NCI-H460 [1]) did it give?
Its Activity is 6.55%.

And the Activity (NCI-H460 [2])?
Its Activity is 7.85%.

What about the Activity (NCI-H460 [3]) of the same molecule?
Its Activity is 8.57%.

What about the Activity (NCI-H460 [4]) of the same molecule?
Its Activity is 9.11%.

And the Activity (NCI-H460 [5])?
Its Activity is 9.84%.

And the Activity (NCI-H460 [6])?
Its Activity is 26.48%.

And the Activity (NCI-H460 [7])?
Its Activity is 53.1%.

What about the IC50 (NCI-H460 [8]) of the same molecule?
The IC50 was 33.1 µM.

`C[C@H]1O[C@H](O[C@H]2[C@H](O)[C@H](O)[C@@H](O[C@H]3[C@H](O)[C@H](O)[C@@H](O[C@H]4CC[C@@]5(C)[C@H](CC[C@@H]6[C@@H]5CC[C@]5(C)[C@@H](C7=CC(=O)OC7)CC[C@]65O)C4)O[C@@H]3C)O[C@@H]2C)[C@@H](O)[C@@H](O)[C@@H]1O` was tested. Which Activity (NCI-H460 [1]) did it give?
Its Activity is 6.44%.

And the Activity (NCI-H460 [2])?
The Activity was 6.85%.

What about the Activity (NCI-H460 [3]) of the same molecule?
Its Activity is 7.17%.

And the Activity (NCI-H460 [4])?
The Activity was 7.99%.

And the Activity (NCI-H460 [5])?
The Activity was 8.37%.

What about the Activity (NCI-H460 [6]) of the same molecule?
Its Activity is 28.42%.

What about the Activity (NCI-H460 [7]) of the same molecule?
Its Activity is 59.91%.

And the IC50 (NCI-H460 [8])?
Its IC50 is 18 µM.

Which Activity (NCI-H460 [1]) does the source give for `C[C@H]1O[C@H](O[C@H]2[C@H](O)[C@H](O)[C@@H](O[C@H]3CC[C@@]4(C)[C@H](CC[C@@H]5[C@@H]4CC[C@]4(C)[C@@H](C6=CC(=O)OC6)CC[C@]54O)C3)O[C@@H]2C)[C@@H](O)[C@@H](O)[C@@H]1O` here?
Its Activity is 6.36%.

What about the Activity (NCI-H460 [2]) of the same molecule?
The Activity was 7.37%.

What about the Activity (NCI-H460 [3]) of the same molecule?
Its Activity is 9.87%.

What about the Activity (NCI-H460 [4]) of the same molecule?
The Activity was 11.06%.

What about the Activity (NCI-H460 [5]) of the same molecule?
Its Activity is 14.52%.

What about the Activity (NCI-H460 [6]) of the same molecule?
The Activity was 58.09%.

And the Activity (NCI-H460 [7])?
Its Activity is 73.4%.

What about the IC50 (NCI-H460 [8]) of the same molecule?
The IC50 was 4.27 µM.
